Assay results reported in PubChem BioAssay AID248 (DTP/NCI, 2004).
Several values for one entry are separate records, joined by “and”; a condition that tells them apart may be missing. Equal entries are not always repeated. Toxic doses and inconclusive results are not listed. Rule as the data show it: active = T/C of 150% or more; inactive = T/C below 125%. Square brackets hold non-standard residues; d marks the D form. Peptide text beside a SMILES is read from it. * marks the point of attachment. ξ: configuration not given here. Boc = CC(C)(C)OC(=O)*; ξP = O=C(O)C1CCCN1

Test system: L1210 leukemia ip in BDF1 mice, survival T/C
Experiment: NCI In Vivo Anticancer Drug Screen. Data for tumor model L1210 Leukemia (intraperitoneal) in B6D2F1 (BDF1) mice
Details: endpoint: mean survival time, higher = longer survival
How it was run: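 Antitumor effect is assessed in tumor-bearing animals. Survival in the compound arm is compared with a vehicle-dosed control arm and expressed as their quotient.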

[1] = dose: 100.0 mg/kg/injection, schedule: Q01DX001 (ip), vehicle: Klucel (hydroxypropylcellulose) (HPC)
[2] = dose: 100.0 mg/kg/injection, schedule: Q01DX009 (ip), vehicle: Klucel (hydroxypropylcellulose) (HPC)
[3] = dose: 100.0 mg/kg/injection, schedule: Q04DX002 (ip), vehicle: Klucel (hydroxypropylcellulose) (HPC)
[4] = dose: 100.0 mg/kg/injection, schedule: Q04DX003 (ip), vehicle: Klucel (hydroxypropylcellulose) (HPC)
[5] = dose: 200.0 mg/kg/injection, schedule: Q01DX001 (ip), vehicle: Klucel (hydroxypropylcellulose) (HPC)
[6] = dose: 200.0 mg/kg/injection, schedule: Q01DX009 (ip), vehicle: Klucel (hydroxypropylcellulose) (HPC)
[7] = dose: 200.0 mg/kg/injection, schedule: Q04DX002 (ip), vehicle: Klucel (hydroxypropylcellulose) (HPC)
[8] = dose: 200.0 mg/kg/injection, schedule: Q04DX003 (ip), vehicle: Klucel (hydroxypropylcellulose) (HPC)
[9] = dose: 400.0 mg/kg/injection, schedule: Q01DX001 (ip), vehicle: Klucel (hydroxypropylcellulose) (HPC)
[10] = dose: 400.0 mg/kg/injection, schedule: Q01DX009 (ip), vehicle: Klucel (hydroxypropylcellulose) (HPC)
[11] = dose: 400.0 mg/kg/injection, schedule: Q04DX002 (ip), vehicle: Klucel (hydroxypropylcellulose) (HPC)
[12] = dose: 400.0 mg/kg/injection, schedule: Q04DX003 (ip), vehicle: Klucel (hydroxypropylcellulose) (HPC)
[13] = dose: 100.0 mg/kg/injection, schedule: Q04DX002 (ip), vehicle: saline with Tween-80
[14] = dose: 200.0 mg/kg/injection, schedule: Q04DX002 (ip), vehicle: saline with Tween-80
[15] = dose: 400.0 mg/kg/injection, schedule: Q04DX002 (ip), vehicle: saline with Tween-80

Measured: T/C

CCOC(=O)CSC(=S)N(C)C
inactive: [1] 102 % of control | [2] 95 % of control and 96 % of control and 111 % of control | [3] 102 % of control and 106 % of control | [4] 101 % of control | [5] 102 % of control | [6] 97 % of control and 104 % of control and 89 % of control | [7] 102 % of control and 103 % of control | [8] 93 % of control | [9] 96 % of control | [10] 89 % of control | [11] 103 % of control and 104 % of control | [12] 93 % of control

Cc1ccccc1NC(=O)Nc1ccccc1F
inactive: [2] 99 % of control | [4] 96 % of control | [6] 99 % of control | [8] 103 % of control | [10] 104 % of control | [12] 110 % of control

[I][Hg][CH2]C1COCC([CH2][Hg][I])O1.[I][Hg][CH2]C1COCC([CH2][Hg][I])O1 (centres undefined)
inactive: dose: 20.0 mg/kg/injection, schedule: Q04DX003 (ip), vehicle: carboxymethylcellulose (CMC) 100 % of control | dose: 40.0 mg/kg/injection, schedule: Q01DX001 (ip), vehicle: carboxymethylcellulose (CMC) 91 % of control | dose: 40.0 mg/kg/injection, schedule: Q04DX003 (ip), vehicle: carboxymethylcellulose (CMC) 105 % of control | dose: 80.0 mg/kg/injection, schedule: Q01DX001 (ip), vehicle: carboxymethylcellulose (CMC) 93 % of control

Nc1ccc(Nc2ccc([N+](=O)[O-])cc2[N+](=O)[O-])cc1
inactive: dose: 50.0 mg/kg/injection, schedule: Q01DX009 (ip), vehicle: gum acacia 99 % of control | dose: 50.0 mg/kg/injection, schedule: Q04DX003 (ip), vehicle: gum acacia 100 % of control | dose: 100.0 mg/kg/injection, schedule: Q01DX009 (ip), vehicle: gum acacia 94 % of control | dose: 100.0 mg/kg/injection, schedule: Q04DX003 (ip), vehicle: gum acacia 101 % of control | dose: 200.0 mg/kg/injection, schedule: Q01DX009 (ip), vehicle: gum acacia 94 % of control | dose: 200.0 mg/kg/injection, schedule: Q04DX003 (ip), vehicle: gum acacia 98 % of control

CCCCCCCCCCCCC/C=C/CC(CC(=O)O)C(=O)Nc1ccc(-n2c(=O)cc(C)n2C)cc1 (centres undefined)
inactive: dose: 100.0 mg/kg/injection, schedule: Q04DX003 (ip), vehicle: saline with Tween-80 92 % of control | dose: 200.0 mg/kg/injection, schedule: Q04DX003 (ip), vehicle: saline with Tween-80 94 % of control | dose: 400.0 mg/kg/injection, schedule: Q04DX003 (ip), vehicle: saline with Tween-80 92 % of control

O=S1(=O)C2CCCCCC2(N2CCOCC2)C1c1ccccc1 (centres undefined)
inactive: [3] 101 % of control | [7] 97 % of control | [11] 93 % of control

CN(C)C(=S)NNC(=O)c1ccc(Cl)cc1
inactive: dose: 6.25 mg/kg/injection, schedule: Q01DX001 (ip), vehicle: saline with Tween-80 98 % of control | dose: 12.5 mg/kg/injection, schedule: Q01DX001 (ip), vehicle: saline with Tween-80 101 % of control | dose: 25.0 mg/kg/injection, schedule: Q01DX001 (ip), vehicle: saline with Tween-80 104 % of control

O=C1C=C(O)C2C3C=CC(CC3)C12 (centres undefined)
inactive: [3] 106 % of control | [7] 106 % of control | [11] 92 % of control

Cc1ccc(C(OC(=O)c2ccccc2)c2nccc3ccccc23)cc1 (centres undefined)
inactive: dose: 100.0 mg/kg/injection, schedule: Q01DX001 (ip), vehicle: saline 86 % of control | dose: 200.0 mg/kg/injection, schedule: Q01DX001 (ip), vehicle: saline 98 % of control | dose: 400.0 mg/kg/injection, schedule: Q01DX001 (ip), vehicle: saline 98 % of control

COc1ccc(CCNC(=O)NC(C)(C)C)cc1OC
inactive: [13] 97 % of control | [14] 94 % of control | [15] 97 % of control

CCOP(=O)(CN1CCCCC1)OCC
inactive: dose: 100.0 mg/kg/injection, schedule: Q04DX002 (ip), vehicle: saline 104 % of control | dose: 200.0 mg/kg/injection, schedule: Q04DX002 (ip), vehicle: saline 96 % of control | dose: 400.0 mg/kg/injection, schedule: Q04DX002 (ip), vehicle: saline 104 % of control

O=C1CCC(c2ccccc2)c2ccccc21 (centres undefined)
inactive: [1] 99 % of control | [5] 97 % of control | [9] 100 % of control

COC(=O)CNC(=O)C1CCCN1C(=O)OC(C)(C)C (centres undefined) (Boc-[ξP]-Gly-OMe)
inactive: dose: 100.0 mg/kg/injection, schedule: Q01DX009 (ip), vehicle: saline with Tween-80 100 % of control | dose: 200.0 mg/kg/injection, schedule: Q01DX009 (ip), vehicle: saline with Tween-80 100 % of control | dose: 400.0 mg/kg/injection, schedule: Q01DX009 (ip), vehicle: saline with Tween-80 90 % of control

CCC1CN2C(=N1)c1ccccc1-c1cc(Cl)ccc12 (centres undefined)
active: dose: 80.0 mg/kg/injection, schedule: Q01DX009 (ip), vehicle: saline 188 % of control
inactive: dose: 6.25 mg/kg/injection, schedule: Q01DX009 (ip), vehicle: suspension in saline 102 % of control | dose: 10.0 mg/kg/injection, schedule: Q01DX001 (ip), vehicle: Klucel (hydroxypropylcellulose) (HPC) 103 % of control | dose: 10.0 mg/kg/injection, schedule: Q01DX009 (ip), vehicle: Klucel (hydroxypropylcellulose) (HPC) 90 % of control | dose: 12.5 mg/kg/injection, schedule: Q01DX009 (ip), vehicle: suspension in saline 102 % of control | dose: 20.0 mg/kg/injection, schedule: Q01DX001 (ip), vehicle: Klucel (hydroxypropylcellulose) (HPC) 114 % of control | dose: 20.0 mg/kg/injection, schedule: Q01DX009 (ip), vehicle: Klucel (hydroxypropylcellulose) (HPC) 90 % of control | dose: 20.0 mg/kg/injection, schedule: Q01DX009 (ip), vehicle: saline 111 % of control | dose: 20.0 mg/kg/injection, schedule: Q04DX002 (ip), vehicle: saline 114 % of control | dose: 20.0 mg/kg/injection, schedule: Q04DX003 (ip), vehicle: Klucel (hydroxypropylcellulose) (HPC) 88 % of control | dose: 25.0 mg/kg/injection, schedule: Q01DX009 (ip), vehicle: suspension in saline 110 % of control | dose: 40.0 mg/kg/injection, schedule: Q01DX001 (ip), vehicle: Klucel (hydroxypropylcellulose) (HPC) 108 % of control | dose: 40.0 mg/kg/injection, schedule: Q04DX002 (ip), vehicle: saline 118 % of control | dose: 40.0 mg/kg/injection, schedule: Q04DX003 (ip), vehicle: Klucel (hydroxypropylcellulose) (HPC) 88 % of control | dose: 80.0 mg/kg/injection, schedule: Q04DX002 (ip), vehicle: saline 122 % of control

CN(C)C(=O)Nc1ccc(Cl)cc1Cl
inactive: [13] 98 % of control | [14] 110 % of control | [15] 121 % of control

CS(=O)(=O)CCC(NC(=O)NCCCl)C(=O)O (centres undefined)
inactive: [1] 104 % of control | [5] 96 % of control | [9] 100 % of control

ClCCN(CCCl)c1ccc(C=Nc2ccc(/C=C\c3ccnc4ccccc34)cc2)cc1
inactive: dose: 100.0 mg/kg/injection, schedule: Q01DX001 (ip), vehicle: other 96 % of control | dose: 200.0 mg/kg/injection, schedule: Q01DX001 (ip), vehicle: other 94 % of control | dose: 400.0 mg/kg/injection, schedule: Q01DX001 (ip), vehicle: other 94 % of control

CCOC(=O)NCCBr
inactive: [2] 102 % of control | [4] 101 % of control | [6] 102 % of control | [8] 106 % of control | [10] 100 % of control | [12] 94 % of control

COc1cc2c(cc1OC)C1Cc3cc(OC)c(OC)cc3C(C2)N1
inactive: dose: 75.0 mg/kg/injection, schedule: Q01DX001 (ip), vehicle: saline 97 % of control | dose: 150.0 mg/kg/injection, schedule: Q01DX001 (ip), vehicle: saline 97 % of control | dose: 300.0 mg/kg/injection, schedule: Q01DX001 (ip), vehicle: saline 97 % of control

O=S(=O)(CCCCl)Cc1ccccc1
inactive: dose: 100.0 mg/kg/injection, schedule: Q01DX009 (ip), vehicle: other 100 % of control | dose: 100.0 mg/kg/injection, schedule: Q04DX003 (ip), vehicle: other 110 % of control | dose: 200.0 mg/kg/injection, schedule: Q01DX009 (ip), vehicle: other 98 % of control | dose: 200.0 mg/kg/injection, schedule: Q04DX003 (ip), vehicle: other 101 % of control | dose: 400.0 mg/kg/injection, schedule: Q01DX009 (ip), vehicle: other 102 % of control | dose: 400.0 mg/kg/injection, schedule: Q04DX003 (ip), vehicle: other 107 % of control
